Experiments:
Aster-B GRAM domain [1] = molecular target: T1, Aster-B GRAM domain (Mus musculus, UniProt Q80TI0); assay: protein-lipid overlay (PIP Strips); type: binding; settings: lipid strip, 100 pmol lipid per spot
T1 construct: B GRAM (Aster-B1-337) was conducted using PIP Strips (Echelon Biosciences); made in house; host or cells: Sf9 insect cells
T1 sequence (Q80TI0 41-377 limits assumed): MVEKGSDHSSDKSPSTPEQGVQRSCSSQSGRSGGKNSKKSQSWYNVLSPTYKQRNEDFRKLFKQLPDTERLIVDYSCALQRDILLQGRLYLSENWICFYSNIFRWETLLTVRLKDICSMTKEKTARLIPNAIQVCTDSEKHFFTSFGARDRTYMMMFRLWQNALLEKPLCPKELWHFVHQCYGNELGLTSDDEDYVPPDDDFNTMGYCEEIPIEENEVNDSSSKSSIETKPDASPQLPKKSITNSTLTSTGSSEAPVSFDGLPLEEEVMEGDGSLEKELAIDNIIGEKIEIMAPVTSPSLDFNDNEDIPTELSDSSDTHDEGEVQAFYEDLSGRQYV
Protocol: FIG. 9A: Protein-lipid overlay over purified mouse Aster-B GRAM domain with various phospholipid species. PA and PS correspond to phosphatidic acid and phosphatidylserine, respectively. FIG. 9A discloses “6xHis” as SEQ ID NO: 11. FIG. 9B: Purified Aster-B GRAM domain was incubated with sucrose-loaded heavy liposomes containing Dansyl-PE and 80-85% PC or 80-85% PS+/−5% Cholesterol. Liposomes were sedimented, washed, and analyzed by immunoblotting for associated Aster-B Gram protein (anti-His antibody). FIG. 9C: Localization of full-length and B ΔGRAM Aster-B-GFP constructs with plasma membrane (CellMask stain) expressed in HeLa cells in the presence or absence of cholesterol loading imaged by live cell confocal microscopy. […] FIG. 9E: Quantification of Aster-B PH-EGFP intensity in the TIRF plane upon cholesterol loading (left panel; n=2-3 cells, error bars+/−SD). […] TIRF videos recorded 5 slices (slices 3-5 were used to calculate FO) before cholesterol addition. […]
(§1) The Aster proteins contain an N-terminal GRAM domain, a structural motif related to the pleckstrin homology domain that is found in glucosyltransferases, Rab-like GTPase activators, myotubularins, and other membrane-associated proteins. […] Given that phosphatidylserine is highly enriched in the inner leaflet of the PM, it was further determined if the Aster-B GRAM domain was associated with phosphatidylserine-containing liposomes.

Aster-B GRAM domain [2] = molecular target: T1, Aster-B GRAM domain; assay: liposome co-sedimentation assay; type: binding; settings: sucrose-loaded heavy liposomes, 80-85% PC or PS
Protocol: FIG. 9A: Protein-lipid overlay over purified mouse Aster-B GRAM domain with various phospholipid species. PA and PS correspond to phosphatidic acid and phosphatidylserine, respectively. FIG. 9A discloses “6xHis” as SEQ ID NO: 11. FIG. 9B: Purified Aster-B GRAM domain was incubated with sucrose-loaded heavy liposomes containing Dansyl-PE and 80-85% PC or 80-85% PS+/−5% Cholesterol. Liposomes were sedimented, washed, and analyzed by immunoblotting for associated Aster-B Gram protein (anti-His antibody). FIG. 9C: Localization of full-length and B ΔGRAM Aster-B-GFP constructs with plasma membrane (CellMask stain) expressed in HeLa cells in the presence or absence of cholesterol loading imaged by live cell confocal microscopy. […] FIG. 9E: Quantification of Aster-B PH-EGFP intensity in the TIRF plane upon cholesterol loading (left panel; n=2-3 cells, error bars+/−SD). […] TIRF videos recorded 5 slices (slices 3-5 were used to calculate FO) before cholesterol addition.
as §1

Substance: phosphatidylserine [phosphatidylserine (PS)]
- interaction with purified Aster-B GRAM domain (Aster-B GRAM domain [1]): interacted strongly
- co-sedimentation of GRAM domain with liposomes (Aster-B GRAM domain [2]): pelleted with

— patent publication US20210255205A1, “COMPOSITIONS AND METHODS FOR TREATING METABOLIC DISEASE” (THE REGENTS OF THE UNIVERSITY OF CALIFORNIA, priority 2018, published 2021)
